Here are results for six compounds from patent publication US20110039896A1, “NOVEL 2-PYRROLIDINYL-3-AMIDO-6-AMINO-PYRIDINE DERIVATIVES USEFUL AS POTASSIUM CHANNEL ACTIVATORS” (NeuroSearch A/S, priority 2007, published 2011).

Each structure is given as a SMILES string.

The target of the experiment is T1, human Kv72+3 channels (Homo sapiens, UniProt O43525+O43526).
T1 construct: expressed in transfected cells
Kind of experiment: Patch-clamp on HEK293 cells stably expressing human Kv7.2+3 channels. It is filed as cell-based. The conditions noted are these: conc. 0.03 μM, −30 mV, 20 ms, current relative to baseline current defined as 100%, read-out: IK (%). An excerpt: The effect obtained by these channel activators is described as a percentage increase in baseline current at a given concentration. The baseline current is defined as 100%, and an increase in current is expressed relative to this, i.e. an increase from 1 nA to 1.2 nA is reported as 120%.

Take `O=C(Cc1ccc(C(F)(F)F)c(F)c1)Nc1ccc(NCc2ccc(F)cc2)nc1N1CCCC1` [Compound 1, N-[6-(4-Fluoro-benzylamino)-2-pyrrolidin-1-yl-pyridin-3-yl]-2-(3-fluoro-4-trifluoromethyl-phenyl)-acetamide]: the activity at 0.03 µM worked out at 306%.

As for `CC(C)(C)CC(=O)Nc1ccc(NCc2ccc(F)cc2)nc1N1CCCC1` [Compound 9, N-[6-(4-Fluoro-benzylamino)-2-pyrrolidin-1-yl-pyridin-3-yl]-3,3-dimethyl-butyramide], the activity at 0.03 µM is 239%.

Turning to `O=C(Nc1ccc(NCc2ccc(F)cc2)nc1N1CCCC1)[C@@H]1C[C@H]1c1ccccc1` [Compound 7, (R)-2-Phenyl-cyclopropanecarboxylic acid [6-(4-fluoro-benzylamino)-2-pyrrolidin-1-yl-pyridin-3-yl]-amide], the activity at 0.03 µM amounted to 192%.

For the compound `N#Cc1ccc(CNc2ccc(NC(=O)Cc3cc(F)cc(F)c3)c(N3CCCC3)n2)cc1` [Compound 17, N-[6-(4-Cyano-benzylamino)-2-pyrrolidin-1-yl-pyridin-3-yl]-2-(3,5-difluoro-phenyl)-acetamide], the activity at 0.03 µM is 490%.

For `COc1ccc(CNc2ccc(NC(=O)Cc3cc(F)cc(F)c3)c(N3CCCC3)n2)cc1` [Compound 19], the activity at 0.03 µM stood at 842%.

For `CC(C)(C)CC(=O)Nc1ccc(NCc2ccc3c(c2)OCO3)nc1N1CCCC1` [Compound 14, N-{6-[(Benzo[1,3]dioxol-5-ylmethyl)-amino]-2-pyrrolidin-1-yl-pyridin-3-yl}-3,3-dimethyl-butyramide], the activity at 0.03 µM turned out to be 155%.
